# Laboratory results as given in US20060252786A1, “Nicotinic-opioid synergy for analgesia” (priority 2004, published 2006).
# Several values for one entry are separate records, joined by “and”; a condition that tells them apart may be missing. Equal entries are not always repeated. Where two headings read alike, the source gives them in different places.
# What was measured:
# postoperative pain = system: postoperative pain
# Description: (§1) This study was a randomized, double blind clinical trial with a 24 hour data collection period. The study was approved by the institutional review board at Columbia University. Written informed consent was obtained from all patients. Women between the ages of 18 and 50, scheduled to have uterine surgery (either myomectomy or hysterectomy) through a low transverse incision were eligible to be included. We chose to only study women in this preliminary study because animal studies have identified gender differences in nicotine's analgesic action 10-12. Patients were excluded who had smoked during the past year, had preexisting pain syndromes, hypertension, or any history of cardiovascular disease. All patients were American Society of Anesthesiologists class 1 or 2. The patients were instructed before surgery that they would be asked about their pain with a numerical analog score where 0 is no pain and 10 is the worst pain that they could imagine. […] No other medications were given in the preoperative period.
# (§2) All patients were given a standardized anesthetic as follows: anesthetic premedication was administered in the operating room consisting of 1-2 μg/kg fentanyl and 1 mg vecuronium. Anesthesia was induced with propofol 2 mg/kg and succinylcholine 2 mg/kg. After intubation of the trachea, anesthesia was maintained with a fentanyl infusion of 1-2 μg/kg/hr and isoflurane titrated to adequate anesthetic depth by the clinical anesthesiologist, who was not aware of the treatment group. Muscle relaxation was effected with vecuronium. All patients were given dolasetron 12.5 mg prophylactically to prevent nausea and vomiting. At the completion of surgery, the anesthesiologist was given an opaque sealed container with either a nicotine nasal spray (3 mg—Nicotrol NS, Pharmacia, Peapack, N.J.) or saline nasal spray prepared according to a random number table by the research pharmacy. The study drug was administered by the anesthesiologist as 3 jets in each nostril (3 mg nicotine or an equal volume of saline) at a 45 degree angle after the muscle relaxant was reversed and while the surgeon was closing the fascia.
# Five minutes after extubation and every 5 minutes thereafter for 60 minutes, the patient was asked to report the pain that they were experiencing with a numerical analog score from 0-10. A pain report was also obtained at 2 and 24 hours. A PCA pump was inserted into the patient's intravenous circuit prior to emergence from anesthesia. […] No other postoperative analgesic medications were used.
# The data were analyzed per protocol. Two subjects from whom informed consent was obtained were not studied for postoperative pain. In one case because of a protocol violation in the standard anesthetic the patient was not randomized and in the second case, the anesthesiologist was not certain of study drug dose. The decision to exclude these patients was made prior to the postoperative period and this no data was obtained.
# (§3) In previous studies using analog pain scores the standard deviation was approximately 2 numerical analog pain units. We calculated that in order to detect a difference of 2 numerical analog pain units, with α=0.05 and 80% power we would need to enroll 17 patients per group (StatMate, GraphPad software, San Diego, Calif., USA). 10 patients were enrolled per group as a pilot study requested by our IRB. […] The change in pain scores over time was determined with a One Way Analysis of Variance for repeated measures, where time was considered a continuous variable (Analyse-it for Microsoft Excel; Analyse-it Software, ltd., Leeds, England). All values are reported as mean (SD).
# [1] = Description: as §1
# as §2, with “fascia. […]” for “fascia.”
# as §3, with “USA).” for “USA). 10 patients were enrolled per group as a pilot study requested by our IRB.”, “All values are reported as mean (SD).” left out
# [2] = remark: listed apart in the source
# Description: as §2
# Blood pressure was measured with a non-invasive automatic oscillometric blood pressure cuff every 5 minutes for the first hour (Agilent Technologies, Andover, Mass.). Heart rate was monitored continuously with a pulse oximeter and electrocardiographic leads and recorded every five minutes for the first hour (Agilent Technologies, Andover, Mass.). All testing was conducted by the same investigator (D.D.). Both the investigator recording data and the nurse administering medication were blinded to treatment group.
# as §3
# post-incisional pain = system: post-incisional pain
# Description: Each of these studies will be nearly identical to the original study (FIG. 5). However, the studies will look at the following dosing paradigms: • 1. Animals will be randomized to receive nicotine 0.25 to 1.5 mg/kg, or placebo 2 hours prior to the hind-paw surgery, or 2 hours after the hind paw surgery (reproducing the original study). […] The doses will be determined in a dose-finding portion of the interaction study. The interaction surface will be modeled and tested to identify any benefit from preoperative administration of nicotine. • 2. […] The study will help to document whether there is any benefit to maintaining nicotine with a constant infusion vs. a simple bolus injection. Expected Results and Potential Issues
# [3] = nicotine nasal spray 3 mg, PCA morphine
# [4] = system: post-incisional pain, injured hind paw; conditions: for Meas (von Frey response): IP, individual measurements
# TNF-α, IL2 and IL6 = conditions: anticipated; nicotine 0-5 mg/kg after surgical incision
# [5] = 3 mg intranasally, non-smoking volunteers; cited from earlier work
# [6] = cited from earlier work
# [7] = system: tail flick antinociception; conditions: cited from earlier work
# [8] = system: antinociceptive action of nicotine; conditions: in vivo; cited from earlier work
# [9] = system: α4β2 type nicotinic receptors; conditions: binds more tightly; cited from earlier work
# [10] = 3 mg intranasally (Guthrie, 1999)
compound,measurement,setting,value
CN1CCCC1c1cccnc1 (stereo not drawn) [nicotine],"peak pain scores (VAS, out of 10)","postoperative pain; 20 non-smoking women after gynecological surgery, reduced from 8 (placebo)",5
same,time at which peak pain score occurred,"postoperative pain; after surgery, nicotine nasal spray 3 mg, PCA morphine",35 min
same,peak pain score (numerical analog score 0-10),"postoperative pain; nicotine nasal spray 3 mg at end of surgery, PCA morphine available, first hour, mean (SD)",5.3 (1.6) units
same,pain score twenty-four hours after emergence,"postoperative pain; nicotine nasal spray 3 mg single dose, PCA morphine, mean (SD), P<0.01 vs placebo",1.5 (0.5)
same,pain scores during the first hour compared with placebo,"postoperative pain; nicotine nasal spray just prior to emergence, P<0.001",lower pain scores at all times during the first hour
same,average VAS score in the first hour,"postoperative pain; preliminary data set, placebo 6.5",approximately 4.5
same,duration of analgesic effect,"postoperative pain; single 3 mg intranasal dose, last assessment in the study",at least 24 hours
same,morphine used during the first 24 hours after surgery,"[1]; nicotine nasal spray 3 mg, difference vs placebo not statistically significant",41 ± 9 mg
same,cumulative morphine utilization during the first hour,"[1]; nicotine nasal spray 3 mg, mean (SD), P<0.05 vs control",6 (5) mg
same,overall morphine usage compared to the placebo group,"[1]; nicotine nasal spray 3 mg, p<0.01",about half
same,reduction in morphine requirement in the first hour,[1]; nicotine vs placebo,50%
same,systolic blood pressure compared with placebo,[2]; first hour after surgery,lower systolic blood pressure
same,diastolic blood pressure compared with placebo,[2]; first postoperative hour,no difference
same,heart rate compared with placebo,[2]; first postoperative hour,no difference
same,systolic blood pressure,"[2]; first postoperative hour, mean (SD), placebo 122 (3), P<0.001",105 (3)
same,hemodynamic consequences of a single dose of nicotine,[2]; pilot study,No hemodynamic consequences have been identified
same,benefit from pre-operative administration (expected),post-incisional pain; 2 hours prior to hind-paw surgery,no benefit
same,analgesic response with constant infusion (expected),post-incisional pain; micro-osmotic pump vs bolus injection,more stable level of analgesic response
same,incidence of nausea and vomiting compared with placebo,[3],did not differ
same,Meas (von Frey response),"[4]; Morphine 0, Nicotine 0.5 (mg)",0 gms (4×) and 0.25 gms
same,Meas (von Frey response),"[4]; Morphine 0, Nicotine 1 (mg)",1.95 gms (2×) and 2.7 gms (3×)
same,Meas (von Frey response),"[4]; Morphine 0, Nicotine 1.5 (mg)",2.7 gms (2×) and 4.9 gms (2×) and 4.65 gms
same,Meas (von Frey response),"[4]; Morphine 0, Nicotine 2 (mg)",2.7 gms (3×) and 4.9 gms (2×)
same,Meas (von Frey response),"[4]; Morphine 0, Nicotine 3 (mg), upper threshold 15",15 gms
same,Meas (von Frey response),"[4]; Morphine 0, Nicotine 5 (mg), upper threshold 15",15 gms
same,ED20 for primary hyperalgesia,[4]; single IP injection,1.5 mg/kg
same,peak withdrawal latency compared with saline group,"tolerance to morphine; morphine infusion 2 mg/kg/hr, data not shown",higher
same,tolerance to morphine after pretreatment with a single dose of nicotine,"tolerance to morphine; nicotine 1.5 mg/kg, morphine continuous infusion 18 hours, P<0.001",Tolerance is reduced
same,"levels of TNF-α, IL2 and IL6 compared with placebo group (expected)","TNF-α, IL2 and IL6",lower levels
same,average increase in systolic blood pressure,[5],7 mM of mercury
same,change in diastolic blood pressure,[5],no change
same,change in heart rate,[5],no change
same,arterial peak concentration,[6]; [10],100 µM
same,steady state venous concentration,[6]; [10],30 µM
same,time to peak effect,[6]; intranasal,five
same,time until effect is dissipated,[6]; intranasal,about one
CN1CC[C@]23c4c5ccc(O)c4O[C@H]2[C@@H](O)C=C[C@H]3[C@H]1C5 [morphine],antinociceptive efficacy alone,[4]; 129J strain relatively insensitive to morphine,relatively ineffective alone
same,Meas (von Frey response),"[4]; Morphine 0.1 mg/kg, Nicotine 0",1.8 gms (2×) and 0.75 gms (2×) and 2.95 gms
same,Meas (von Frey response),"[4]; Morphine 1 mg/kg, Nicotine 0",1.95 gms (3×) and 1.7 gms and 0.9 gms and 5.2 gms (2×) and 5.95 gms and 0.75 gms and 2.95 gms
same,Meas (von Frey response),"[4]; Morphine 5 mg/kg, Nicotine 0",0.9 gms (3×) and 1.1 gms (2×) and 7.9 gms (3×) and 7.65 gms (2×)
same,Meas (von Frey response),"[4]; Morphine 10 mg/kg, Nicotine 0",1.1 gms (3×) and 0.45 gms and 2.15 gms
same,Meas (von Frey response),"[4]; Morphine 13 mg/kg, Nicotine 0",4.65 gms (2×) and 7.65 gms (3×)
same,Meas (von Frey response),"[4]; Morphine 20 mg/kg, Nicotine 0",7.9 gms and 4.9 gms (3×) and 8.1 gms
same,reduction in peak effect (plateau of analgesic action),"tolerance to morphine; morphine 2 mg/kg/hr subcutaneous pump, nicotine 1 mg/kg IP or saline, heat withdrawal latency, 18 hour period",64±14%
CCN1C[C@]2(COC(=O)c3ccccc3N3C(=O)C[C@H](C)C3=O)CC[C@H](OC)[C@@]34[C@@H]5C[C@H]6[C@H](OC)[C@@H]5[C@](O)(C[C@@H]6OC)[C@](O)([C@@H](OC)[C@H]23)[C@@H]14 [MLA],effect on the antinociceptive response to nicotine,[7]; tail flick assay,no effect
C[N+](C)(C)CCCCCC[N+](C)(C)C [hexamethonium],effect on the antinociceptive action of nicotine,[8],no effect
CNCC/C=C/c1cccnc1 [metanicotine],"binding selectivity for α4β2 over α3β4, α7 or muscle type nicotinic receptors",[9],"over 10,000 times"
same,antinociception in the tail flick assay,[7]; dose of 10 mg/kg,midrange antinociception
